# According to US12637428B2, “Isoquinoline derivatives as SIK2 inhibitors” (Cancer Research Technology Limited, priority 2019, dated 2026):
# Assays:
# Assay type in all cases: biochemical
# SIK2 = target: T1, SIK2 (Homo sapiens, UniProt Q9H0K1); test: SIK2 kinase assay, IMAP fluorescence polarization; conditions: 50 or 100 μM ATP, average
# T1 construct: purchased Life Technologies
# Summary of the method: (§1)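 Kinases (0.6–13 nM) incubated 60 min at room temperature with 100 nM FAM-Abltide, FAM-Srctide or FAM-HDAC peptide and 50 or 100 μM ATP in 20 mM Tris pH 7.2, 4 mM MgCl2, 0.2% BSA, 2 mM DTT. IMAP binding reagent (85:15 buffer A:B; 30:70 for Src) stopped reactions; fluorescence polarization read; compounds tested 0.00005–1 μM.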
# SIK3 = target: T2, SIK3 (Homo sapiens, UniProt Q9Y2K2); test: SIK3 kinase assay, IMAP fluorescence polarization; conditions: 50 or 100 μM ATP, average
# T2 construct: purchased Life Technologies
# T2 sequence (Q9Y2K2 whole entry): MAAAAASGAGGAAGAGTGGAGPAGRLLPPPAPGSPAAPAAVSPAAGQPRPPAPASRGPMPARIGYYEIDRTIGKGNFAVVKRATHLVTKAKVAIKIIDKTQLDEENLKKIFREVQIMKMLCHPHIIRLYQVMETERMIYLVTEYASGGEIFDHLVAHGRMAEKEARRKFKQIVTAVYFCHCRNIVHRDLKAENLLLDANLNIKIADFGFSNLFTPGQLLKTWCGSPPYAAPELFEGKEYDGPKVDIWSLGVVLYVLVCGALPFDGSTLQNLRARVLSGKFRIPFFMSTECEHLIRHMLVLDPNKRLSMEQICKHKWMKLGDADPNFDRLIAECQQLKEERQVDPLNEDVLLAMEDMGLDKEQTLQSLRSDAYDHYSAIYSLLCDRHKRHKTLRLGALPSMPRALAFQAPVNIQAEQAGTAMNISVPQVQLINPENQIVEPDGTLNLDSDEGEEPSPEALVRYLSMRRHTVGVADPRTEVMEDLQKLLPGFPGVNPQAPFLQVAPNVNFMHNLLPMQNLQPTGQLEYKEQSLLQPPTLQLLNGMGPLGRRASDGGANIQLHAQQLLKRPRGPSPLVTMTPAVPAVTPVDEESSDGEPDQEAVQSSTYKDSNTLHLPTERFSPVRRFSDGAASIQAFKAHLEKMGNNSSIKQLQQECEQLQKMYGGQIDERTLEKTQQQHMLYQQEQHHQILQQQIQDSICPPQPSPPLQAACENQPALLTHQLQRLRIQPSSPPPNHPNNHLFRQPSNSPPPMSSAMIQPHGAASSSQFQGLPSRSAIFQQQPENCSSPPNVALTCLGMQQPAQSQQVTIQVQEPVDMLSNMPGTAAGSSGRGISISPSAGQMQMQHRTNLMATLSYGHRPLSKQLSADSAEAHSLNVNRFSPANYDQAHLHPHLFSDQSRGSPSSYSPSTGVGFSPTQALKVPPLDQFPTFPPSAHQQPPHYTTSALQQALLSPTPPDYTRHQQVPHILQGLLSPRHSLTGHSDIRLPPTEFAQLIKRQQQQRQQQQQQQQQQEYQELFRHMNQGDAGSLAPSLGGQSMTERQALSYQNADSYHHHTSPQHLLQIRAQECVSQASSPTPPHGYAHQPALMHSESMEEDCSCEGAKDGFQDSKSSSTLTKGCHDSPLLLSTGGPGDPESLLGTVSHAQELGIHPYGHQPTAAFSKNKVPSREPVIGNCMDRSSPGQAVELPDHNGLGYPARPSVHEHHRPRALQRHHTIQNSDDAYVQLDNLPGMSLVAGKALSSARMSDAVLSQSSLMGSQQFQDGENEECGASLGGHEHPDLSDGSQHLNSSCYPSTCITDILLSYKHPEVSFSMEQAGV
# Summary of the method: as §1
# EPHA2 = target: T3, EPHA2 (Homo sapiens, UniProt P29317); test: EPHA2 kinase assay, IMAP fluorescence polarization; conditions: 50 or 100 μM ATP, Tris pH 8.5, average
# T3 construct: purchased Life Technologies
# T3 sequence (P29317 24-976): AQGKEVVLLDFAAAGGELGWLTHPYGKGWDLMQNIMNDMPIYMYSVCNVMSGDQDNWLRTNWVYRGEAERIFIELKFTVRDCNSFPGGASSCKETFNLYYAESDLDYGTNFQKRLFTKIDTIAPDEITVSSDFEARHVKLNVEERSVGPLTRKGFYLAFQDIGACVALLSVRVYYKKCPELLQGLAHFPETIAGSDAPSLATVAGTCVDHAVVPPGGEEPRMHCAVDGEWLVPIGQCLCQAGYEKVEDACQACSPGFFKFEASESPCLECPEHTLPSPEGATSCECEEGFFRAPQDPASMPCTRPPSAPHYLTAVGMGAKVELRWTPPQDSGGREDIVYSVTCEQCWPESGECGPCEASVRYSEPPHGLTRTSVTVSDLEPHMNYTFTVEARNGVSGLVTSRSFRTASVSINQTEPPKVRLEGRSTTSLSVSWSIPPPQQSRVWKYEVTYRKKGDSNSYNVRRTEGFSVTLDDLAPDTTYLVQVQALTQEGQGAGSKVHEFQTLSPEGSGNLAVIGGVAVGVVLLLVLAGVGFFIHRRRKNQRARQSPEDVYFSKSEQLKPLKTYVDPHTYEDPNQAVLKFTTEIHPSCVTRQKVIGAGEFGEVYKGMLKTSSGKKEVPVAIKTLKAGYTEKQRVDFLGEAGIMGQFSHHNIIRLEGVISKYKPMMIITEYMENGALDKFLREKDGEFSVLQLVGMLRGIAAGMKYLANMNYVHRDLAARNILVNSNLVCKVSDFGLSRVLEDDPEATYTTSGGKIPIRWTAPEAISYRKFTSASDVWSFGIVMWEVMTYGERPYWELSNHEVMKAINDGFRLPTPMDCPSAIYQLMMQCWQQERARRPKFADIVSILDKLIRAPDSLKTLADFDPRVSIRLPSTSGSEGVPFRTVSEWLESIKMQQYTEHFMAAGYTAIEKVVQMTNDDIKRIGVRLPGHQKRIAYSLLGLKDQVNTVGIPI
# SIK1 = target: T4, SIK1 (Homo sapiens, UniProt P57059); test: SIK1 kinase assay, IMAP fluorescence polarization; conditions: 50 or 100 μM ATP, average
# T4 construct: purchased Life Technologies
# T4 sequence (P57059 whole entry): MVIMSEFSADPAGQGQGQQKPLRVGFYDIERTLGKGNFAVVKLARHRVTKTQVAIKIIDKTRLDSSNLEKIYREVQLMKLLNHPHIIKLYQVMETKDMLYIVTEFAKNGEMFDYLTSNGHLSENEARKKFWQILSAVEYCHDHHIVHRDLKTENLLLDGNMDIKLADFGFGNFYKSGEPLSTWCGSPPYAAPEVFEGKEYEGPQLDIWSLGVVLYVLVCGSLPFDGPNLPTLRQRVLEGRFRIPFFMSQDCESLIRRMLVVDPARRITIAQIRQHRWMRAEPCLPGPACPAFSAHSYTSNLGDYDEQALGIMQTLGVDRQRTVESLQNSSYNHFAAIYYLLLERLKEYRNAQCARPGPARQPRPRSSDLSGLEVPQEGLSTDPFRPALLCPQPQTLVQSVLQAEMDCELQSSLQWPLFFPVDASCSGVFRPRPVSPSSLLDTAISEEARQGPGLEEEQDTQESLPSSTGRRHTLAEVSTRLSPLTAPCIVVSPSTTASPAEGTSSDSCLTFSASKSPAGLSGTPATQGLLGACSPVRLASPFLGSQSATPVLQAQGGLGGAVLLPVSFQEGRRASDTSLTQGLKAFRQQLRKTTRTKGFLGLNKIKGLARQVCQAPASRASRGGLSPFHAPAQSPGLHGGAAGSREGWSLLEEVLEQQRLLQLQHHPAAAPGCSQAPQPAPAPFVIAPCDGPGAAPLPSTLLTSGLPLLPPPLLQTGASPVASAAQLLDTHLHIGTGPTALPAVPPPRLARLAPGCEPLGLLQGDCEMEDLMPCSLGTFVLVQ
# Summary of the method: as §1
# Src = target: T5, Src (Homo sapiens, UniProt P12931); test: Src kinase assay, IMAP fluorescence polarization; conditions: 50 or 100 μM ATP, average
# T5 construct: purchased Life Technologies
# Summary of the method: as §1
# Abl = target: T6, Abl (Homo sapiens, UniProt P00519); test: Abl kinase assay, IMAP fluorescence polarization; conditions: 50 or 100 μM ATP, average
# T6 construct: purchased Life Technologies
# T6 sequence (P00519 whole entry): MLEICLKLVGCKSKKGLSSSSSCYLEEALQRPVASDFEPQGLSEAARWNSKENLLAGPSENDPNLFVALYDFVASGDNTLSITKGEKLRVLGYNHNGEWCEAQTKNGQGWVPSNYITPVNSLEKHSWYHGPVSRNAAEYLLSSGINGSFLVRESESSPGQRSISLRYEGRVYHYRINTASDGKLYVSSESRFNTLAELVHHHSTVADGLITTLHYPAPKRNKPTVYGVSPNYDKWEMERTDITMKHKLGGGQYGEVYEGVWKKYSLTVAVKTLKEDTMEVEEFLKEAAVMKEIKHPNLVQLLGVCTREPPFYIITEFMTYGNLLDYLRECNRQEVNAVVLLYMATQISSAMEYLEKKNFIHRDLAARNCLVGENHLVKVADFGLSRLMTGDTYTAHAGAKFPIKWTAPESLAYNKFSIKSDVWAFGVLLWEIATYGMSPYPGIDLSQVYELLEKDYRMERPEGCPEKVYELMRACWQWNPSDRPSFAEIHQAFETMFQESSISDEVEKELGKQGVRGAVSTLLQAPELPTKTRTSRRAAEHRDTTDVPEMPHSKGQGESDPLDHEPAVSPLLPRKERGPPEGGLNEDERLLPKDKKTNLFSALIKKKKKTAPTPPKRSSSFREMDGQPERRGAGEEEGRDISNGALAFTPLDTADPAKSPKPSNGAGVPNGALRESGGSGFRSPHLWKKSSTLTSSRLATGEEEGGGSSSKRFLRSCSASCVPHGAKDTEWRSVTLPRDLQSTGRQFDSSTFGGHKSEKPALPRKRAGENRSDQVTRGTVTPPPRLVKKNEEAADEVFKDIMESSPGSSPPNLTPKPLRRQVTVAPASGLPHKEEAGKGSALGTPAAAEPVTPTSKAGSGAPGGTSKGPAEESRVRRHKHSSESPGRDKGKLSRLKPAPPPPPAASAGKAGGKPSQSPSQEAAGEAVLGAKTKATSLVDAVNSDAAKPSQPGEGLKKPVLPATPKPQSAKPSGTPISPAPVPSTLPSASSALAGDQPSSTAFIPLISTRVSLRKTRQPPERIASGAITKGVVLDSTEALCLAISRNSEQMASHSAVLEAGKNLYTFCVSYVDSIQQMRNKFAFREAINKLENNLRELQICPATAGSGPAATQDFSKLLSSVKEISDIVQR
# Summary of the method: as §1
# T1 sequence (Q9H0K1 whole entry): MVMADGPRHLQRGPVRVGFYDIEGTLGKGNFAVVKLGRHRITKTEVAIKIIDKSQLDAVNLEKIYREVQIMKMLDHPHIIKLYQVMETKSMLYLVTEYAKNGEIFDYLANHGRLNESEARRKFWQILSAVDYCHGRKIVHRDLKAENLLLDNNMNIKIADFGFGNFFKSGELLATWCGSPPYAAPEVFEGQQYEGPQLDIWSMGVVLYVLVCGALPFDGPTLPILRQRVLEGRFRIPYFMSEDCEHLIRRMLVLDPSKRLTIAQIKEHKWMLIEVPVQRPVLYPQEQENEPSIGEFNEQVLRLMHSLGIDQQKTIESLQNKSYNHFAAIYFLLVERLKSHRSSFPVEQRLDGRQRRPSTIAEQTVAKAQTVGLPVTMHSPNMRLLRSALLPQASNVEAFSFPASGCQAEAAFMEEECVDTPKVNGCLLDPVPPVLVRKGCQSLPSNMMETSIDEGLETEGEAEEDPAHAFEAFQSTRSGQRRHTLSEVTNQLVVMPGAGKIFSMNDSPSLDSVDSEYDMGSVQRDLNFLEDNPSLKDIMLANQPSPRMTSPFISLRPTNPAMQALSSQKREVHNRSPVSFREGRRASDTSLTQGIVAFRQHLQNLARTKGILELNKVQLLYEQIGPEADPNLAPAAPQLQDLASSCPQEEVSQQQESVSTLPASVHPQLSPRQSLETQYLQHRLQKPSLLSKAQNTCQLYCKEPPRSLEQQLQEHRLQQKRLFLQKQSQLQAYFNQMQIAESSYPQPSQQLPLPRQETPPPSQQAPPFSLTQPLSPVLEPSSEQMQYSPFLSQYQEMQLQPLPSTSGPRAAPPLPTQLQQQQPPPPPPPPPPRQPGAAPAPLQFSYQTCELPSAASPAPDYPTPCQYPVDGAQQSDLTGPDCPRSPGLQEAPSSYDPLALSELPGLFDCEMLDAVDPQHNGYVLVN
Ki (SIK2) [nM],Ki (SIK3) [nM],Ki (EPHA2) [nM],Ki (SIK1) [nM],Ki (Src) [nM],Ki (Abl) [nM],Structure (SMILES)
0.0911,1.62,258,0.611,40.2,7.38,"Cc1cccc(F)c1-c1cc(N[C@@H]2CCCN(C)C2)c2cc(N)ncc2c1 [Example 85, 7-(2-fluoro-6-methyl-phenyl)-N5-[(3R)-1-methyl-3-piperidyl]isoquinoline-3,5-diamine]"
0.0838,1.98,22.3,0.656,34.3,6.72,"Cc1cccc(F)c1-c1cc(N[C@H]2CCCN(C)C2)c2cc(N)ncc2c1 [Example 86, 7-(2-fluoro-6-methyl-phenyl)-N5-[(3S)-1-methyl-3-piperidyl] isoquinoline-3,5-diamine]"
5.31,130,1850,53.2,1040,83.7,"Cc1cccc(F)c1-c1ccc2c(C(=O)NC3CN(C)C3)c(N)ncc2c1 [Example 89, 3-Amino-7-(2-fluoro-6-methyl-phenyl)-N-(1-methylazetidin-3-yl)isoquinoline-4-carboxamide]"
2.91,38.8,29.2,5.62,32.9,3.04,"Cc1cccc(F)c1-c1cc(C(=O)NC2CCN(C)C2)c2cc(N)ncc2c1 (stereo not drawn) [Example 99, 3-Amino-7-(2-fluoro-6-methyl-phenyl)-N-(1-methylpyrrolidin-3-yl)isoquinoline-5-carboxamide]"
4.41,61.4,131,11.8,41.4,3.65,"Cc1cccc(F)c1-c1cc(C(=O)NC2CN(C)C2)c2cc(N)ncc2c1 [Example 100, 3-amino-7-(2-fluoro-6-methyl-phenyl)-N-(1-methylazetidin-3-yl)isoquinoline-5-carboxamide]"
0.0539,0.915,> 100,0.66,134,59.1,"Cc1cccc(F)c1-c1cc(OC2CCN(C)CC2)c2cc(N)ncc2c1 [Example 101, 7-(2-Fluoro-6-methyl-phenyl)-5-[(1-methyl-4-piperidyl)oxy]isoquinolin-3-amine]"
0.219,5.27,> 1000,1.46,274,24.6,"Cc1cccc(F)c1-c1cc(OC2CN(C)C2)c2cc(N)ncc2c1 [Example 102, 7-(2-fluoro-6-methyl-phenyl)-5-(1-methylazetidin-3-yl)oxy-isoquinolin-3-amine]"
0.296,5.01,189,2.21,143,97.2,"Cc1cccc(F)c1-c1cc(NC2CCN(C)CC2)c2ccncc2c1 [Example 103, 7-(2-Fluoro-6-methyl-phenyl)-N-(1-methyl-4-piperidyl)isoquinolin-5-amine]"
4.37,176,> 1000,43.4,> 1000,45.4,"Cc1cccc(F)c1-c1cc(N2CCC(O)CC2)c2cc(N)ncc2c1 [Example 104, 1-[3-Amino-7-(2-fluoro-6-methyl-phenyl)-5-isoquinolyl]piperidin-4-ol]"
19.5,553,> 10000,123,> 10000,28.8,"Cc1cccc(F)c1-c1cc(N2CC[C@@H](O)C2)c2cc(N)ncc2c1 [Example 106, (3R)-1-[3-amino-7-(2-fluoro-6-methyl-phenyl)-5-isoquinolyl]pyrrolidin-3-ol]"
4.46,201,> 1000,24.6,617,56.4,"Cc1cccc(F)c1-c1cc(N2CCC[C@H](O)C2)c2cc(N)ncc2c1 [Example 107, (3S)-1-[3-amino-7-(2-fluoro-6-methyl-phenyl)-5-isoquinolyl]piperidin-3-ol]"
